Measurements as given in patent US4146631A, “Benzamide derivatives” (May & Baker Limited, priority 1976, dated 1979).

Experiments:
[1] = Acute oral toxicity in mice; settings: mouse, in vivo, highest dose used 1000 mg/kg, read-out: LD50 (doses lethal to 50% of mice tested)
From the text: Mice were each treated orally with one of the compounds of formula I, and they were observed daily until there had been at least 3 consecutive days without any deaths. The LD50 figures obtained (doses lethal to 50% of mice tested) are shown below in Table IV, expressed in mg/kg animal body weight.
The symbol ">" means "greater than" in this specification. Where the LD50 is said to be ">1000," a more precise estimation of the LD50 was not possible because the numbers of deaths was too small, even at the highest dose used, 1000 mg/kg.

[2] = test system: passive cutaneous anaphylactic (PCA) reaction; test: Passive cutaneous anaphylactic (PCA) reaction, reagin-allergen combination, in rats; assay type: in vivo; settings: Rattus norvegicus; for ED100: intravenous, just before injection of allergen, read-out: ED100 (intravenous dose which produces 100% inhibition of the PCA reaction); for inhibition in vivo at 100 mg/kg: oral dose of 100 mg/kg; for inhibition in vivo at 100 mg/kg / ED50: thirty minutes before intravenous allergen; for ED50: oral, read-out: ED50 (oral dose which produces 50% inhibition of the PCA reaction)
From the text: In pharmacological tests the benzamide derivatives of general formula I suppress the passive cutaneous anaphylactic (PCA) reaction resulting from combination of tissue-fixed reaginic antibodies with the appropriate antigenic material (termed reagin-allergen combination) and carried out in an essentially similar manner to that described by Ogilvie [Nature (Lond.), (1964), 204, 91-92; Immunology, (1967), 12, 112-131]. In the method used to test these compounds sera were obtained from rats which had been infected with larvae of the nematode parasite Nippostrongylus brasiliensis; as a result of the parasitic infestation reaginic antibodies are elaborated in the host mammal and are found in sera removed from such animals. Other, non-infected, rats received intradermal injections of appropriate dilutions of such sera and were then given the allergenic material along with Evans' blue dye intravenously forty-eight hours later.
The allergenic material consisted of supernatant fluid after centrifugation of homogenates of adult Nippostrongylus brasiliensis worms which had been macerated in Tyrode's solution. The sites of PCA reactions were visualised by the effusion of Evan's blue dye from the circulation into those areas as a result of increased capillary permeability caused by the release of biologically-active substances from cells where reagin-allergen combination had occurred. The new compounds when given intravenously to the rats just before injection of allergen, or administered orally thirty minutes before intravenous injection of allergen, were able to prevent the development of the PCA reaction, as shown below in Table I, Table II and Table III.

[3] = Acute intravenous toxicity in mice; settings: mouse, in vivo
From the text: Mice were each treated intravenously with an aqueous solution of the triethanolamine salt or sodium salt of one of the compounds of formula I, and they were observed until there had been at least 3 consecutive days without any deaths. The LD50 figures obtained (doses lethal to 50% of mice tested) are shown below in Table V, expressed in mg/kg animal body weight. In Table V, "Na" means that the sodium salt was used and "T" means that the triethanolamine salt was used.
The aqueous solutions were prepared as follows:
A mixture of the test compound and water was treated gradually with triethanolamine until complete solution occurred. The solution was then diluted with water to a concentration of test compound of either 1% w/v or 2% w/v.
The test compound was dissolved in aqueous sodium hydroxide (1N) and the solution was brought to pH 8 by treatment with hydrochloric acid. The solution was then diluted with water to a concentration of test compound of 2% w/v.
Various volumes of these solutions were then administered to the mice.

[4] = triethanolamine salt (T), 2% w/v test solution
[5] = sodium salt (Na), 2% w/v test solution
[6] = triethanolamine salt (T), 1% w/v solution for lower doses, 2% w/v for higher doses

Structure (SMILES)	LD50 [1] [mg/kg]	ED100 [2] [mg/kg]	inhibition in vivo at 100 mg/kg [2] [%]	ED50 [2] [mg/kg]	LD50 [3, 4] [mg/kg]	LD50 [3, 5] [mg/kg]	LD50 ([3]; triethanolamine salt (T), 1% w/v test solution) [mg/kg]	LD50 [3, 6] [mg/kg]
O=C(Nc1nnn[nH]1)c1cccc([N+](=O)[O-])c1O [AI, 2-hydroxy-3-nitro-N-(tetrazol-5-yl)benzamide]	> 1000	0.5	68	5 to 30	> 1000	–	–	–
O=C(Nc1nnn[nH]1)c1cc([N+](=O)[O-])ccc1O [AO, 2-hydroxy-5-nitro-N-(tetrazol-5-yl)benzamide]	> 1000	0.2	48	100	870	–	–	–
COc1ccc(O)c(C(=O)Nc2nnn[nH]2)c1 [AP, 2-hydroxy-5-methoxy-N-(tetrazol-5-yl)benzamide]	> 1000	0.5	75	100	–	950	–	–
CC(=O)c1cc(C)cc(C(=O)Nc2nnn[nH]2)c1O [AR, 3-acetyl-2-hydroxy-5-methyl-N-(tetrazol-5-yl)benzamide]	> 1000	0.1	42	0.75	430	–	–	–
CCOc1cccc(C(=O)Nc2nnn[nH]2)c1O [AS, 3-ethoxy-2-hydroxy-N-(tetrazol-5-yl)benzamide]	> 1000	1	76	10	560	–	–	–
CC(=O)c1cc(C(=O)Nc2nnn[nH]2)c(O)c(C(C)=O)c1O [AW, 3,5-diacetyl-2,4-dihydroxy-N-(tetrazol-5-yl)benzamide]	> 1000	5	84	–	710	–	–	–
CC(C)(C)c1ccc(C(=O)Nc2nnn[nH]2)c(O)c1 [BA, 4-tert-butyl-2-hydroxy-N-(tetrazol-5-yl)benzamide]	> 1000	10	37	–	230	–	–	–
CC(=O)Nc1ccc(C(=O)Nc2nnn[nH]2)c(O)c1 [BB, 4-acetylamino-2-hydroxy-N-(tetrazol-5-yl)benzamide]	> 1000	1	26	–	645	–	–	–
O=C(Nc1nnn[nH]1)c1cc(-c2ccccc2)ccc1O [BG, 2-hydroxy-5-phenyl-N-(tetrazol-5-yl)benzamide]	> 1000	10	–	–	–	–	200	–
CCc1cc(C(C)=O)c(O)c(C(=O)Nc2nnn[nH]2)c1 [BW, 3-acetyl-5-ethyl-2-hydroxy-N-(tetrazol-5-yl)benzamide]	> 1000	0.1	51	0.1	–	320	–	–
CC(=O)c1c(C)c(C)cc(C(=O)Nc2nnn[nH]2)c1O [BX, 3-acetyl-2-hydroxy-4,5-dimethyl-N-(tetrazol-5-yl)benzamide]	> 1000	20	–	–	870	–	–	–
CC(=O)c1cccc(C(=O)Nc2nnn[nH]2)c1O [CA, 3-acetyl-2-hydroxy-N-(tetrazol-5-yl)benzamide]	> 1000	0.1	64	–	500	–	–	–
CCC(=O)c1cc(C)cc(C(=O)Nc2nnn[nH]2)c1O [CE, 2-hydroxy-5-methyl-3-propionyl-N-(tetrazol-5-yl)benzamide]	> 1000	0.05	99	0.4	270	–	–	–
CCC(=O)c1cc(CC)cc(C(=O)Nc2nnn[nH]2)c1O [CF, 5-ethyl-2-hydroxy-3-propionyl-N-(tetrazol-5-yl)benzamide]	> 1000	0.05	41	0.27	280	–	–	–
N#Cc1cccc(C(=O)Nc2nnn[nH]2)c1O [CJ, 3-cyano-2-hydroxy-N-(tetrazol-5-yl)benzamide]	> 1000	0.5	50	37	> 1000	–	–	–
CC(=O)c1cc(C(=O)Nc2nnn[nH]2)c(O)c([N+](=O)[O-])c1 [CQ, 5-acetyl-2-hydroxy-3-nitro-N-(tetrazol-5-yl)benzamide]	> 1000	0.2	56	–	890	–	–	–
Cc1cc(C(=O)Nc2nnn[nH]2)c(O)c(C(=O)c2ccccc2)c1 [CR, 3-benzoyl-2-hydroxy-5-methyl-N-(tetrazol-5-yl)benzamide]	> 1000	1	22	–	350	–	–	–
O=C(Nc1nnn[nH]1)c1cc(Cl)ccc1O [Compound AD, 5-chloro-2-hydroxy-N-(tetrazol-5-yl)benzamide]	> 1000	1	94	13	–	480	–	–
O=C(Nc1nnn[nH]1)c1cc([N+](=O)[O-])cc([N+](=O)[O-])c1O [Compound AE, 2-hydroxy-3,5-dinitro-N-(tetrazol-5-yl)benzamide]	> 1000	0.05	80	0.1 to 0.45	490	–	–	–
O=C(Nc1nnn[nH]1)c1cccc(Br)c1O [Compound AL, 3-bromo-2-hydroxy-N-(tetrazol-5-yl)benzamide]	794	10	69	55	540	–	–	–
CCCOc1cccc(C(=O)Nc2nnn[nH]2)c1O [Compound AN, 2-hydroxy-3-propoxy-N-(tetrazol-5-yl)benzamide]	> 1000	0.5	87	40	480	–	–	–
CC(=O)c1cc(Cl)cc(C(=O)Nc2nnn[nH]2)c1O [Compound AU, 3-acetyl-5-chloro-2-hydroxy-N-(tetrazol-5-yl)benzamide]	> 1000	2	71	1.8	245	–	–	–
CC(=O)c1ccc(O)c(C(=O)Nc2nnn[nH]2)c1 [Compound AV, 5-acetyl-2-hydroxy-N-(tetrazol-5-yl)benzamide]	> 1000	10	16	–	645	–	–	–
COc1cccc(C(=O)Nc2nnn[nH]2)c1O [Compound BE, 2-hydroxy-3-methoxy-N-(tetrazol-5-yl)benzamide]	> 1000	0.2	62	18	580	–	–	–
O=C(Nc1nnn[nH]1)c1cc(F)ccc1O [Compound BH, 5-fluoro-2-hydroxy-N-(tetrazol-5-yl)benzamide]	> 1000	1	94	16	–	–	–	500
CCC(C)c1cc(C(C)=O)c(O)c(C(=O)Nc2nnn[nH]2)c1 (stereo not shown) [Compound BY, 3-acetyl-5-sec-butyl-2-hydroxy-N-(tetrazol-5-yl)benzamide]	> 1000	0.5	43	1.8	180	–	–	–
CC(=O)c1cc(C(C)(C)C)cc(C(=O)Nc2nnn[nH]2)c1O [Compound BZ, 3-acetyl-5-tert-butyl-2-hydroxy-N-(tetrazol-5-yl)benzamide]	> 1000	0.5	59	2.6	240	–	–	–
CCCc1cc(C(C)=O)c(O)c(C(=O)Nc2nnn[nH]2)c1 [Compound CD, 3-acetyl-2-hydroxy-5-propyl-N-(tetrazol-5-yl)benzamide]	> 1000	0.1	64	–	250	–	–	–
CCCC(=O)c1cc(CC)cc(C(=O)Nc2nnn[nH]2)c1O [Compound CG, 3-butyryl-5-ethyl-2-hydroxy-N-(tetrazol-5-yl)benzamide]	> 1000	0.1	55	2.2	–	–	–	270
